Measurements reported in ChEMBL document CHEMBL5030532, “Synthesis and Evaluation of Galloyl Conjugates of Flavanones as BMP-2 Upregulators with Promising Bone Anabolic and Fracture Healing Properties” (J Med Chem, 2021).
The source made the active and inactive calls. No cut-off for these calls is given here.

Legend:
[1] = tested on: Calvarial osteoblast; experiment: Induction of osteoblast differentiation in rat Calvaria osteoblast cells measured assessed as increase in alkaline phosphatase activity at 1 pM incubated for 48 hrs using PNPP as substrate; assay type: functional, cell-based
[2] = tested on: Calvarial osteoblast; experiment: Induction of osteoblast differentiation in rat Calvaria osteoblast cells measured assessed as increase in alkaline phosphatase activity at 10 pM incubated for 48 hrs using PNPP as substrate; assay type: functional, cell-based
[3] = tested on: Calvarial osteoblast; experiment: Induction of osteoblast differentiation in rat Calvaria osteoblast cells measured assessed as increase in alkaline phosphatase activity at 0.000001 to 1 uM incubated for 48 hrs using PNPP as substrate; assay type: functional, cell-based; details: dose lower 1e-06 µM, dose upper 1.0 µM
[4] = tested on: Calvarial osteoblast; experiment: Induction of osteoblast differentiation in rat Calvaria osteoblast cells measured assessed as maximal increase in alkaline phosphatase activity incubated for 48 hrs using PNPP as substrate; assay type: functional
[5] = tested on: Calvarial osteoblast; experiment: Cytotoxicity against rat Calvarial osteoblast cells assessed as viable cells measured at 0.000001 to 1 uM measure after 48 hrs by cell viability assay; assay type: cell-based; details: dose lower 1e-06 µM, dose upper 1 µM
[6] = tested on: Calvarial osteoblast; experiment: Induction of rat Calvarial osteoblast cell proliferation at 0.000001 to 1 uM measured after 48 hrs by MTT assay; assay type: functional, tissue-based; details: dose lower 1e-06 µM, dose upper 1.0 µM
[7] = tested on: Calvarial osteoblast; experiment: Induction of mineralization in rat Calvarial osteoblast cells measured at 1 pM measured for 14 days by Cetylpyridinium chloride method; assay type: functional, tissue-based; details: time 14.0 day
[8] = Induction of osteogeneis in rat calvarial osteoblast cells assessed as fold upregulation of ALP gene expression at 1 pM measured after 48 hrs by qPCR analysis relative to control; assay type: functional
[9] = Induction of osteogeneis in rat calvarial osteoblast cells assessed as fold upregulation of BMP-2 gene expression at 1 pM measured after 48 hrs by qPCR analysis relative to control; assay type: functional
[10] = Induction of osteogeneis in rat calvarial osteoblast cells assessed as fold upregulation of Col1 gene expression at 1 pM measured after 48 hrs by qPCR analysis relative to control; assay type: functional
[11] = Induction of osteogeneis in rat calvarial osteoblast cells assessed as fold upregulation of RUNX2 gene expression at 1 pM measured after 48 hrs by qPCR analysis relative to control; assay type: functional
[12] = tested on: Calvarial osteoblast; experiment: Induction of osteogenesis in rat calvarial osteoblast cells assessed as upregulation of BMP-2 protein expression at 1 pM measured after 48 hrs by immunoblotting analysis; assay type: functional, cell-based
[13] = tested on: Calvarial osteoblast; experiment: Induction of osteogeneis in rat calvarial osteoblast cells assessed as upregulation of RUNX2 protein expression at 1 pM measured after 48 hrs by immunoblotting analysis; assay type: functional, tissue-based
[14] = tested on: Calvarial osteoblast; experiment: Induction of osteoblast differentiation in rat Calvaria osteoblast cells measured assessed as increase in alkaline phosphatase activity at 0.000001 to 1 uM incubated for 48 hrs using PNPP as substrate in presence of noggin; assay type: functional, cell-based; details: dose lower 1e-06 µM, dose upper 1.0 µM
[15] = In vivo induction of osteogenic activity in neonatal rat pups assessed as fold increase in RUNX2 gene expression in calvarial tissue at 5 mg/kg, sc administered for 6 days; assay type: functional, Calvaria; details: time 6 day
[16] = tested on: Rattus norvegicus; experiment: In vivo induction of osteogenic activity in neonatal rat pups assessed as fold increase in BMP-2 gene expression in calvarial tissue at 5 mg/kg, sc administered for 6 days; assay type: functional, organism-based; details: Calvaria, time 6.0 day
[17] = In vivo induction of osteogenic activity in neonatal rat pups assessed as fold increase in OCN gene expression in calvarial tissue at 5 mg/kg, sc administered for 6 days; assay type: functional, Calvaria; details: time 6 day
[18] = In vivo induction of osteogenic activity in neonatal rat pups assessed as fold increase in OCN gene expression in calvarial tissue at 10 mg/kg, sc administered for 6 days; assay type: functional, Calvaria; details: time 6 day
[19] = tested on: Rattus norvegicus; experiment: Induction of new bone formation in rat pups assessed as mineral apposition rate in calvaria at 5 mg/kg, sc measured after 5 days by fluorescent microscopy by relative to control; assay type: functional, organism-based; details: time 5.0 day
[20] = tested on: Rattus norvegicus; experiment: Induction of new bone formation in rat pups assessed as mineralized bone formation in calvaria by measuring bone formation rate at 5 mg/kg, sc measured after 5 days by fluorescent microscopy by relative to control; assay type: functional, organism-based; details: time 5.0 day
[21] = tested on: Rattus norvegicus; experiment: Induction of new bone formation in rat pups assessed as mineralized bone formation in calvaria by measuring bone formation rate at 10 mg/kg, sc measured after 5 days by fluorescent microscopy by relative to control; assay type: functional, organism-based; details: time 5.0 day
[22] = tested on: Rattus norvegicus; experiment: Induction of new bone formation in rat pups assessed as mineralized bone formation in calvaria by measuring increase in calvarial thickness at 5 mg/kg, sc measured after 5 days by Hematoxylin and eosin staining based quantitative histology; assay type: functional, organism-based; details: time 5.0 day
[23] = tested on: Rattus norvegicus; experiment: Induction of bone regeneration in adult rat femur osteotomy model assessed as increase in bone volume/tissue volume fraction measured at 5 mg/kg, po for 14 days by microCT analysis relative to control; assay type: functional; details: time 14 day
[24] = tested on: Rattus norvegicus; experiment: Induction of bone regeneration in adult rat femur osteotomy model assessed as increase in trabecular thickness measured at 5 mg/kg, po for 14 days by microCT analysis relative to control; assay type: functional, organism-based; details: time 14.0 day
[25] = tested on: Rattus norvegicus; experiment: Induction of bone regeneration in adult rat femur osteotomy model assessed as increase in trabecular number measured at 5 mg/kg, po for 14 days by microCT analysis relative to control; assay type: functional, organism-based; details: time 14.0 day
[26] = Induction of bone regeneration in adult rat femur osteotomy model assessed as fold increase in OCN expression in fracture calluses measured at 5 mg/kg, po for 14 days by […] relative to control; assay type: functional; details: time 14 day
[27] = Induction of bone regeneration in adult rat femur osteotomy model assessed as fold increase in Col1 gene expression in fracture calluses measured at 5 mg/kg, po for 14 days by […] relative to control; assay type: functional; details: time 14 day
[28] = tested on: Rattus norvegicus; experiment: Induction of bone regeneration in adult rat femur osteotomy model assessed as restoration of bone morphology measured at 5 mg/kg, po for 14 days by toluidine blue staining based analysis; assay type: functional, organism-based; details: time 14.0 day
[29] = Stability of the compound in simulated gastric acid at pH 1.2 measured after 1 hr by LC-MS/MS analysis; assay type: ADME; details: read-out: Stability
[30] = Stability of the compound in simulated intestinal acid at pH 6.5 measured after 1 hr by LC-MS/MS analysis; assay type: ADME; details: read-out: Stability
[31] = Stability in rat plasma after 1 hr incubation by LC-MS/MS analysis; assay type: ADME, cell-free; details: read-out: Stability
[32] = Stability in rat liver microsomes after 1 hr incubation by LC-MS/MS analysis; assay type: ADME, Microsome
[33] = Cmax in Sprague-Dawley rat at 5 mg/kg, po by LC-MS/MS analysis; assay type: ADME, organism-based; set-up: route oral, dose 5 mg/kg; details: in vivo
[34] = Cmax in Sprague-Dawley rat at 10 mg/kg, po by LC-MS/MS analysis; assay type: ADME, organism-based; set-up: route oral, dose 10 mg/kg; details: in vivo
[35] = AUC in Sprague-Dawley rat at 5 mg/kg, po by LC-MS/MS analysis; assay type: ADME, organism-based; set-up: dose 5 mg/kg; details: in vivo
[36] = AUC in Sprague-Dawley rat at 10 mg/kg, po by LC-MS/MS analysis; assay type: ADME, organism-based; set-up: dose 10 mg/kg; details: in vivo
[37] = Volume of distribution in Sprague-Dawley rat at 10 mg/kg, po by LC-MS/MS analysis; assay type: ADME, organism-based; details: in vivo
[38] = Volume of distribution in Sprague-Dawley rat at 5 mg/kg, po by LC-MS/MS analysis; assay type: ADME, organism-based; details: in vivo
[39] = Clearance in Sprague-Dawley rat at 10 mg/kg, po by LC-MS/MS analysis; assay type: ADME, organism-based; details: in vivo
[40] = Clearance in Sprague-Dawley rat at 5 mg/kg, po by LC-MS/MS analysis; assay type: ADME, organism-based; details: in vivo
[41] = Half life in Sprague-Dawley rat at 5 mg/kg, po by LC-MS/MS analysis; assay type: ADME, organism-based; details: in vivo
[42] = Half life in Sprague-Dawley rat at 10 mg/kg, po by LC-MS/MS analysis; assay type: ADME, organism-based; details: in vivo
[43] = MRT in Sprague-Dawley rat at 5 mg/kg, po by LC-MS/MS analysis; assay type: ADME, organism-based; details: in vivo
[44] = MRT in Sprague-Dawley rat at 10 mg/kg, po by LC-MS/MS analysis; assay type: ADME, organism-based; details: in vivo
[45] = tested on: Rattus norvegicus; experiment: Induction of bone regeneration in adult rat femur osteotomy model assessed as increase in calcein labeled callus measured at 5 mg/kg, po for 14 days by calcein labeling study relative to control; assay type: functional; details: time 14 day

With `COc1cccc(C2CC(=O)c3cc([N+](=O)[O-])ccc3O2)c1` (stereo not given) the Activity [1] was “Active” and the Activity [2] was “Active”.

With `COc1cccc([C@@H]2CC(=O)c3cc(NC(=O)c4cc(OC)c(OC)c(OC)c4)ccc3O2)c1` the Activity [3] was “Active”.

With `COc1cccc([C@H]2CC(=O)c3cc(NC(=O)c4cc(OC)c(OC)c(OC)c4)ccc3O2)c1` the Activity [3] was “Active”.

For `O=C(O)c1cc(O)c(O)c(O)c1`, the Activity [1] was “Active” and the Activity [2] was “Active”.

In the case of `COc1cccc(C2CC(=O)c3cc(NC(=O)c4cc(OC)c(OC)c(OC)c4)ccc3O2)c1` (racemic), the ECmax [4] is reported as 1 nM, the Activity [5] is reported as “Non-Toxic” and the Activity [6] is reported as “Toxic”. The Activity [7] was “Active”, the “fold change (FC)” value [8] was 5.5 and the “fold change (FC)” value [9] was 4.4. The “fold change (FC)” value [10] was 2.9, the “fold change (FC)” value [11] was 3.7 and the Activity [12] was “Active”. The Activity [1] was “Active”, the Activity [2] was “Active” and the Activity [13] was “Active”. The Activity [14] was “inactive”, the “fold change (FC)” value [15] was 2 and the Activity [16] was “Dose-Dependent Effect”. The “fold change (FC)” value [17] was 18, the “fold change (FC)” value [18] was 10 and the Activity [19] was “inactive”. For the same compound, the Activity [20] was “Active”, the Activity [21] was “Active” and the Activity [22] was “Active”. The Activity [23] was 44.3%, the Activity [24] was “Active” and the Activity [25] was “Active”. For the same compound, the “fold change (FC)” value [26] was 2.2, the “fold change (FC)” value [27] was 2.5 and the Activity [28] was “Active”. It also gave a remaining at 1 h [29] of 69%, a remaining at 1 h [30] of 88% and a remaining at 1 h [31] of 89%. The Stability [32] was “Stable”, the Cmax [33] was 736 ng/mL and the Cmax [34] was 858 ng/mL. The AUC [35] was 4820 ng·h/mL, the AUC [36] was 6530 ng·h/mL and the Vdss [37] was 12.99 L/kg. The Vdss [38] was 8.42 L/kg, the CL/F [39] was 25.7 mL/min/kg and the CL/F [40] was 17.3 mL/min/kg. For the same compound, the half-life [41] was 5.6 h, the half-life [42] was 5.85 h and the MRT [43] was 7.68 h. The MRT [44] was 9.17 h and the Activity [45] was 130%.
